The values below come from PMC6366710, “The structural basis of unique substrate recognition by Plasmodium thymidylate kinase: Molecular dynamics simulation and inhibitory studies” (PLoS ONE, 2019).

The assay deals with T1, PfTMK (Plasmodium falciparum thymidylate kinase) (Plasmodium falciparum, UniProt Q8I4S1).
T1 construct: gene TMK; natural dimer
T1 sequence (Q8I4S1 1-210): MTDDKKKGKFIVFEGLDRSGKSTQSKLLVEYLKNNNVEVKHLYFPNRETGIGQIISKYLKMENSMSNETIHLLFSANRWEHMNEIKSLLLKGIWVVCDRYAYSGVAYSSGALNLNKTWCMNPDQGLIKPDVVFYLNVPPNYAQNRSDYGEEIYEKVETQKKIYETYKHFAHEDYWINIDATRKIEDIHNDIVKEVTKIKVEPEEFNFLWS
Put plainly: NADH-coupled (pyruvate kinase/lactate dehydrogenase) spectrophotometric TMP kinase assay, initial rates. It is filed as biochemical. The source says: NADH-coupled (pyruvate kinase/lactate dehydrogenase) spectrophotometric TMP kinase assay, initial rates on PfTMK (Plasmodium falciparum thymidylate kinase)
As a reminder, the Ki is the dissociation constant of the complex between target and ligand, obtained from inhibition or displacement. Low values mean a stronger hold on the target, high ones a looser hold on the target. Compound `Nc1nc2c(nc(O)n2[C@H]2C[C@H](O)[C@@H](CO)O2)c(=O)[nH]1` [8-Hydroxy-2'-deoxyguanosine] came in with a Ki of 180 µM. Then `Nc1ncn([C@H]2C[C@H](OP(=O)(O)OC[C@H]3O[C@@H](n4cnc5c(=O)[nH]c(N)nc54)C[C@@H]3O)[C@@H](CO)O2)c(=O)n1` [Guadecitabine], with 90 µM. `Nc1nc2c(ncn2[C@@H]2O[C@H](COP(=O)(O)OP(=O)(O)O[C@H]3O[C@H](CO)[C@@H](O)[C@H](O)[C@@H]3O)[C@@H](O)[C@H]2O)c(=O)[nH]1` [Guanosine diphosphate mannose] returned a Ki greater than 1000 µM. The compound `Nc1nc2c(ncn2[C@H]2C[C@H](O)[C@@H](CO)O2)c(=O)[nH]1` [deoxyguanosine] showed a Ki of 270 µM.
